We go through ten molecules from patent US12336982B2 (RODEO THERAPEUTICS CORPORATION, priority 2018, dated 2025).

The target of this experiment is T1, recombinant 15-PGDH (Homo sapiens, UniProt P15428).
T1 sequence (P15428 1-266): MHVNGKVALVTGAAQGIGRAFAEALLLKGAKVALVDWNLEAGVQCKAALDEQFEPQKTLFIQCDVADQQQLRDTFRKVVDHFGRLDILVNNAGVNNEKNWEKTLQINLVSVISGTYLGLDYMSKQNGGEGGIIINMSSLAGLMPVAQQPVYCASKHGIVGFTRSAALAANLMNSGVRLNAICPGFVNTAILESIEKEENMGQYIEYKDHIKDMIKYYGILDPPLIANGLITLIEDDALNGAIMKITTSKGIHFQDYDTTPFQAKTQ
The format is biochemical. The note with it: recombinant human 15-PGDH, in vitro; read-out: PDGH Assay-IC50.

Source text: The Recombinant 15-PGDH is human unless otherwise specified.

What is called IC50 is the point on the concentration scale where inhibition reaches its midpoint. Take `COCC[S@+]([O-])c1sc2nc(-c3cnc4nn(C)nc4c3)cc(-c3ccnn3C)c2c1N` [Example 382]: the IC50 is at least 10 nM.
In the case of `COCCC[S@@+]([O-])c1sc2nc(-c3cnc4c(cnn4C)c3)cc(-c3cccnc3)c2c1N` [Example 101], the IC50 was below 2.5 nM.
Turning to `Nc1c([S@+]([O-])C2CCC2)sc2nc(-c3cnc(NCCO)nc3)cc(-c3cccnc3)c12` (stereo in doubt) [Example 103], the IC50 is below 2.5 nM.
The value for `COCCC[S+]([O-])c1sc2nc(-c3cccnc3)cc(C(F)(F)F)c2c1N` (stereo not shown) [Example 56] was below 2.5 nM; that for `Cn1cc2cc(-c3cc(C(F)(F)F)c4c(N)c([S@@+]([O-])C5CCC5)sc4n3)cnc2n1` [Example 422] was at least 10 nM; that for `COCCC[S+]([O-])c1sc2nc(-c3cnc(N)nc3)cc(-c3ccc(F)cc3)c2c1N` (stereo not shown) [Example 46] was below 2.5 nM.
Consider `COCC[S+]([O-])c1sc2nc(-c3ccnnc3)cc(C3CCC3)c2c1N` (stereo not shown) [Example 347], for which the IC50 was below 2.5 nM.
With `Nc1ncc(-c2cc(-c3ncccc3F)c3c(N)c([S+]([O-])C4CCC4)sc3n2)cn1` (stereo not shown) [Example 77], the IC50 is below 2.5 nM.
As to `Nc1c([S@+]([O-])C2CCC2)sc2nc(-c3cnc(NCCOCCO)nc3)cc(-c3ccccc3)c12` [Example 184], the IC50 was below 2.5 nM.
For the molecule `Nc1c([S+]([O-])C2CCC2)sc2nc(-c3cccnc3)cc(-c3cccnc3)c12` (stereo not shown) [Example 50], the IC50 was below 2.5 nM.
